We go through 9 compounds from ChEMBL document CHEMBL1130728, “Alkoxide-catalyzed ring-opening of a novel homosaccharin derivative: synthesis of potent, selective P3-lactam thrombin inhibitors containing P4-o-alkoxycarbonylbenzylsulfonamide residues” (Bioorg Med Chem Lett, 1998).

Assay [1] deals with Coagulation factor X (Homo sapiens, UniProt P00742). Briefly: In vitro inhibitory activity was evaluated against Coagulation factor X.
Assay [2] in a line: In vitro inhibitory activity was evaluated against FIIa serine protease.
The target in assay [3] is T1, Plasminogen (Rattus norvegicus, UniProt Q01177). Kind of assay: In vitro inhibitory activity was evaluated against thrombolytic enzyme plasmin; Inactive.
T1 sequence (Q01177 97-581 limits assumed): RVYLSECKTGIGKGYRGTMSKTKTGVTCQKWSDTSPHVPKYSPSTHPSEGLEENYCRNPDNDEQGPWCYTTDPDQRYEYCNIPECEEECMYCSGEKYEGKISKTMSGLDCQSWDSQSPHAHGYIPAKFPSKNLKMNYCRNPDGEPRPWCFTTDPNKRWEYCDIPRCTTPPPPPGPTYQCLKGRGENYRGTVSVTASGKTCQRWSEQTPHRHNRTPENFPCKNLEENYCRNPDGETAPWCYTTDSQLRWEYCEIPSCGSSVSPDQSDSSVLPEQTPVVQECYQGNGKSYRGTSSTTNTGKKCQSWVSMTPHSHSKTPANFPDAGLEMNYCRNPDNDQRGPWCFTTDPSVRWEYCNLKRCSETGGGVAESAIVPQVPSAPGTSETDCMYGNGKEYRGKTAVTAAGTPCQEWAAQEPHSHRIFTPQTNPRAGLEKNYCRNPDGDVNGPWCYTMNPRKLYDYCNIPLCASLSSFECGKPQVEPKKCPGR
T1 sequence (Q01177 582-812 limits assumed): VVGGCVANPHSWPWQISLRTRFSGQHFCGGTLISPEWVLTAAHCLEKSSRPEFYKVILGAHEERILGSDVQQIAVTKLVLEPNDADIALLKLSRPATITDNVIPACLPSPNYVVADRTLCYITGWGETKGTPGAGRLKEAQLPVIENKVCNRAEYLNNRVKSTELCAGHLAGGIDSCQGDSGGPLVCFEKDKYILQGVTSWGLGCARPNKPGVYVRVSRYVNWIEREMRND
Assay [4] has as its target Serine protease 1 (Homo sapiens, UniProt P07477). Kind of assay: In vitro inhibitory activity was evaluated against human trypsin.
Assay [5] has as its target T1, Plasminogen. Briefly: In vitro inhibitory activity was evaluated against thrombolytic enzyme plasmin.

Chain of Coagulation factor X (P00742 41-179 limits assumed): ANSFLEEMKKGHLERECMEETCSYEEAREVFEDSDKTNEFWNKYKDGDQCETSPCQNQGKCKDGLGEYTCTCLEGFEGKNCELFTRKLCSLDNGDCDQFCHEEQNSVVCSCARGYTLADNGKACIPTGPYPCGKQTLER
Chain of Coagulation factor X (P00742 235-488 limits assumed): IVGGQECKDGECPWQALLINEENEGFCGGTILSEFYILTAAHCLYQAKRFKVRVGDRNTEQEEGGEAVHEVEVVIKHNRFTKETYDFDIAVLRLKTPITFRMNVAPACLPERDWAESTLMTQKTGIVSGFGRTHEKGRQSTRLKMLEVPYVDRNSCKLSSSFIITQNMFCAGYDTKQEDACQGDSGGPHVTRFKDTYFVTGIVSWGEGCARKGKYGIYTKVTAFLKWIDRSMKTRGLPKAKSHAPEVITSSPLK
Chain of Serine protease 1 (P07477 whole entry): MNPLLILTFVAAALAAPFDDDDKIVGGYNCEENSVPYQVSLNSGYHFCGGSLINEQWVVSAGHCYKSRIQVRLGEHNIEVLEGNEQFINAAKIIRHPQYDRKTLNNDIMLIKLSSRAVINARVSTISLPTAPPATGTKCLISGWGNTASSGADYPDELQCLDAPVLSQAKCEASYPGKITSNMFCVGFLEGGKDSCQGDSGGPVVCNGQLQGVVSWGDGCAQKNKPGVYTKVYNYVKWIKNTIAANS

`N=C(N)N1CCC[C@H](NC(=O)CN2CCC[C@H](NS(=O)(=O)Cc3ccccc3)C2=O)C1O` (stereo not given in full): the half-maximal inhibitory concentration (IC50) in assay [1] was above 2500 nM; in assay [2] it was 6.2 nM; in assay [3], “Not Active”.

As to `COC(=O)c1ccccc1CS(=O)(=O)N[C@H]1CCCCN(CC(=O)N[C@H]2CCCN(C(=N)N)C2O)C1=O` (stereo not given in full), the 50% inhibitory concentration (IC50) in assay [1] is 333 nM; in assay [4], 118 nM; in assay [2], 0.75 nM; in assay [5] it was above 2500 nM.

Regarding `N=C(N)N1CCC[C@H](NC(=O)CN2CCCC[C@H](N3C(=O)c4ccccc4CS3(=O)=O)C2=O)C1O` (stereo not given in full), the IC50 in assay [1] was above 2500 nM; in assay [4] it was 2500 nM; in assay [2], 244 nM; in assay [5] it was above 2500 nM.

With `N=C(N)N1CCC[C@H](NC(=O)CN2CCCC[C@H](NS(=O)(=O)Cc3ccccc3)C2=O)C1O` (stereo not given in full), the IC50 was 39.6 nM in assay [1], 101 nM in assay [4], 0.7 nM in assay [2] and above 2500 nM in assay [5].

For the compound `CC(C)OC(=O)c1ccccc1CS(=O)(=O)N[C@H]1CCCCN(CC(=O)N[C@H]2CCCN(C(=N)N)C2O)C1=O` (stereo not given in full), the IC50 was 369 nM in assay [1], 41.3 nM in assay [4], 0.94 nM in assay [2] and above 2500 nM in assay [5].

In the case of `N=C(N)N1CCC[C@H](NC(=O)CN2CCCC[C@H](NS(=O)(=O)Cc3ccccc3C(=O)O)C2=O)C1O` (stereo not given in full), the IC50 in assay [1] is above 2500 nM; in assay [4], 247 nM; in assay [2], 39.1 nM; in assay [5], above 2500 nM.

As to `CCCCCCCCCCOC(=O)c1ccccc1CS(=O)(=O)N[C@H]1CCCCN(CC(=O)N[C@H]2CCCN(C(=N)N)C2O)C1=O` (stereo not given in full), the IC50 in assay [1] was above 2500 nM; in assay [4] it was 143 nM; in assay [2], 7.03 nM; in assay [5] it was above 2500 nM.

Turning to `N=C(N)N1CCC[C@H](NC(=O)CN2CCCC[C@H](NS(=O)(=O)Cc3ccccc3C(=O)OCC3CCCCC3)C2=O)C1O` (stereo not given in full), the IC50 amounted to 627 nM in assay [1], 135 nM in assay [4], 0.56 nM in assay [2] and 1760 nM in assay [5].

Take `CCCOC(=O)c1ccccc1CS(=O)(=O)N[C@H]1CCCCN(CC(=O)N[C@H]2CCCN(C(=N)N)C2O)C1=O` (stereo not given in full): the IC50 in assay [1] was 451 nM; in assay [4], 79.8 nM; in assay [2] it was 0.96 nM; in assay [5], above 2500 nM.

The term IC50 denotes the concentration that inhibits the measured activity by half. Read a low IC50 as higher potency.
